In patent US7795285B2, “Anti-trypanosomiasis agent” (Fujifilm Corporation, priority 2004, dated 2010):

tested on: Rat derived-L6 cells (rat skeletal myoblast cell); assay: Growth inhibition test of rat L6 cells (Alamar Blue, 72 hours); type: cell-based; settings: 72 hours culture, Table 2, read-out: 50% growth inhibiting concentration Cytotoxicity L6
Experimental: (§1) Rat derived-L6 cells (rat skeletal myoblast cell) were used. As medium, RPMI1640 medium was supplemented so that L-glutamin (200 mM) is 1%, and fetal bovine serum 10%, and the medium was cultured under CO2 concentration 5%, at 37° C. The compounds of the present invention and the target drugs to be used in the test were dissolved in DMSO, to make a test solution of a predetermined concentration. Pre-culture was conducted and medium containing cells which have entered the logarithmic growth phase was taken to wells of a 96-well culture plate. Then, a test solution containing drug of a predetermined concentration or a drug-free DMSO was added. Test solutions were taken by duplicates. Culture plate was cultured for 72 hours in an incubator, to test the growth inhibition activity. Test was conducted as follows.
(§2) 10 μL of Alamar Blue aqueous solution was added to each well, and the resultant was further cultured for 2 hours. Next, the culture plate was placed on a fluorescent micro-plate reader (Spectramax Gemeni XS; US Molecular Device), radiated at an excited wavelength of 536 nm. Fluorescent intensity was measured at 588 nm, and residual rate of L6 cells of the test solution added group, and that of the control was calculated. From the cell residual rate obtained in the above, growth inhibition rate to L6 cells was calculated, to obtain a 50% growth inhibition concentration (IC50). Growth inhibition rate (%)={(C−A)/(B−A)}×100 A: primary cell count B: cell count of control 3 days after C: cell count of wells added with a sample, 3 days after […]

Row | SMILES | IC50 [µM]
1 | CCn1c(=O)/c(=c2\s/c(=C3/Sc4ccccc4N3C)c(=O)n2CC)s/c1=C\c1sc2ccccc2[n+]1C [C-1] | > 140

tested on: not listed separately; assay: as above; type: cell-based; settings: 72 hours culture, Table 1, read-out: 50% growth inhibiting concentration Cytotoxicity L6
Experimental: as §1, §2

Row | SMILES | IC50 at 72 h [µM]
2 | Nc1nc(N)nc(Nc2ccc([As]3SCC(CO)S3)cc2)n1 (stereo not shown) [melarsoprol, reference compound] | 7.8

same assay, conditions: L6 cells (rat skeletal myoblasts), 72 hours culture, Table 1, read-out: 50% growth inhibiting concentration Cytotoxicity L6

Row | SMILES | IC50 at 72 h [µM]
3 | CCn1c(=O)c(=C2C=CN(C)C=C2)s/c1=C\c1sc2c3ccccc3ccc2[n+]1CC [A-1] | 134
4 | CCn1c(=O)/c(=C2\C=CN(C)c3ccccc32)s/c1=C\c1oc2ccccc2[n+]1CC [A-2] | 6.4
5 | CCn1c(=O)/c(=C2\SCCN2C)s/c1=C\c1sc2ccc3ccccc3c2[n+]1CC [B-1] | 193
6 | CCn1c(=O)/c(=C2\Sc3ccccc3N2C)s/c1=C\c1cccc[n+]1CCOCCOCCOC [B-5] | 125
7 | CCn1c(=O)/c(=C2\Sc3ccccc3N2C)s/c1=C\c1cccc[n+]1CCOCCOCCO [B-6] | 61.9
8 | CCn1c(=O)/c(=C2\Oc3ccc4ccccc4c3N2C)s/c1=C\c1scc(C)[n+]1C [B-9] | 14.2
9 | CCn1c(=O)/c(=C2\Oc3c(ccc4ccccc34)N2C)s/c1=C\C1=[N+](CC)CCS1 [B-10] | 18.5
10 | CCn1c(=O)/c(=c2\s/c(=C3/Sc4ccccc4N3C)c(=O)n2CC)s/c1=C\c1sc2ccccc2[n+]1C [C-1] | > 140

tested on: Trypanosoma cruzi (Tulahuen C2C4 strain); assay: American trypanosome protozoa growth inhibition screening test (CPRG/Nonidet, 96 hours); type: cell-based; settings: Trypanosoma cruzi; Tulahuen C2C4 strain in rat L6 cells, 96 hours culture; read-out: 50% growth inhibiting concentration Trypanosoma cruzi
Experimental: In the present example, amastigote and trypomastigote infected with rat L6 cells of protozoa of Trypanosoma cruzi (Tulahuen C2C4 strain) were used. As medium used in the test, RPMI 1640 medium containing L6 cells was supplemented so that L-glutamine (200 mM) becomes 1%, fetal bovine serum becomes 10%, which was cultured under CO2 concentration 5%, at 37° C.
The compounds of the present invention to be used in the test and the positive target agent (benznidazole) were dissolved in DMSO to make a test solution of a predetermined concentration. A medium containing 5×10^3 protozoa was added to wells of a 96-well culture plate, and pre-cultured for 48 hours. After replacing the medium, test solution containing drug of a predetermined concentration or a drug-free DMSO was added. Test solutions were taken by duplicates. After culturing the culture plate in an incubator for 96 hours, growth inhibition activity was tested. Test was conducted as follows.
50 μL of CPRG/Nonidet was added to each well, and allowed to rest for 2 to 6 hours. Next, the culture plate was placed on a fluorescent micro-plate reader, and the absorbance was measured at 540 nm. Growth inhibition rate was calculated with the following formula based on the protozoan infection rate which was obtained by calculating trypanosome infection rate of test solution added group and control group, to obtain a 50% growth inhibition concentration (IC50). Growth inhibition rate (%)={1−(b−a)/(c−a)}×100 a: early infection rate b: infection rate when test solution was added c: infection rate of the control
Chemotherapy index used as an index of selective toxicity against American trypanosome protozoa was calculated with the following formula, to determine drug efficacy.

Row | SMILES | IC50 [µM]
11 | CCn1c(=O)c(=C2C=CN(C)C=C2)s/c1=C\c1sc2c3ccccc3ccc2[n+]1CC [A-1] | 48
12 | CCn1c(=O)/c(=C2\C=CN(C)c3ccccc32)s/c1=C\c1oc2ccccc2[n+]1CC [A-2] | 0.53
13 | CCn1c(=O)/c(=C2\SCCN2C)s/c1=C\c1sc2ccc3ccccc3c2[n+]1CC [B-1] | 40
14 | CCn1c(=O)/c(=C2\Sc3ccccc3N2C)s/c1=C\c1cccc[n+]1CCOCCOCCOC [B-5] | 29
15 | CCn1c(=O)/c(=C2\Oc3ccc4ccccc4c3N2C)s/c1=C\c1scc(C)[n+]1C [B-9] | 0.22
16 | CCn1c(=O)/c(=C2\Oc3c(ccc4ccccc34)N2C)s/c1=C\C1=[N+](CC)CCS1 [B-10] | 0.35
17 | CCn1c(=O)/c(=c2\s/c(=C3/Sc4ccccc4N3C)c(=O)n2CC)s/c1=C\c1sc2ccccc2[n+]1C [C-1] | 14
18 | O=C(Cn1ccnc1[N+](=O)[O-])NCc1ccccc1 [benznidazole, reference compound] | 0.87

same assay, conditions: chemotherapy index, rat L6 cells versus American trypanosome protozoa

Row | SMILES | Selective toxicity
19 | CCn1c(=O)c(=C2C=CN(C)C=C2)s/c1=C\c1sc2c3ccccc3ccc2[n+]1CC [A-1] | 2.8
20 | CCn1c(=O)/c(=C2\C=CN(C)c3ccccc32)s/c1=C\c1oc2ccccc2[n+]1CC [A-2] | 10
21 | CCn1c(=O)/c(=C2\SCCN2C)s/c1=C\c1sc2ccc3ccccc3c2[n+]1CC [B-1] | 4.8
22 | CCn1c(=O)/c(=C2\Sc3ccccc3N2C)s/c1=C\c1cccc[n+]1CCOCCOCCOC [B-5] | 4.3
23 | CCn1c(=O)/c(=C2\Oc3ccc4ccccc4c3N2C)s/c1=C\c1scc(C)[n+]1C [B-9] | 65
24 | CCn1c(=O)/c(=C2\Oc3c(ccc4ccccc34)N2C)s/c1=C\C1=[N+](CC)CCS1 [B-10] | 53
25 | CCn1c(=O)/c(=c2\s/c(=C3/Sc4ccccc4N3C)c(=O)n2CC)s/c1=C\c1sc2ccccc2[n+]1C [C-1] | >10

tested on: Trypanosoma brucei rhodensiense (STIB 900 strain); assay: African trypanosome protozoa growth inhibition screening test (Alamar Blue, 72 hours); type: cell-based; settings: Trypanosoma brucei, STIB900, 72 h, read-out: 50% growth inhibiting concentration Trypanosoma brucei rhod.
Experimental: In the present example, protozoa of Trypanosoma brucei rhodensiense (STIB 900 strain), a trypamastigote living in blood stream, was used. The medium used in the experiment was a MEM medium which was sterilized with a filter and supplemented with 25 mM N-2-hydroxyethylpiperazine-2-ethansulfonic acid (HEPES), 1 g/L glucose, 1% MEM non-essential amino acid, 0.2 mM 2-mercaptoethanol, 2 mM sodium pyruvate, 0.1 mM hypoxanthine, and 15% heat-treated horse serum. The protozoa was cultured in an atmosphere of CO2 concentration 5%, at a temperature of 37° C.
The compounds of the present invention to be used in the present test and the positive target drug (melarsoprol) were dissolved in DMSO to make a test solution of a predetermined concentration. A medium containing 8×10^3 protozoa, and a test solution containing a drug of a predetermined concentration or a drug-free DMSO were added to wells of a 96-well culture plate, and subsequently, medium was added so that the amount in each well becomes 100 μL. Test solutions were taken by duplicates. After culturing the culture plate for 72 hours in an incubator, growth inhibition activity was tested. Test was conducted as follows.
10 μL of Alamar Blue aqueous solution was added to each well, and the resultant was further cultured for 2 hours. Next, the culture plate was placed on a fluorescent micro-plate reader (Spectramax Gemeni XS; US Molecular Device), radiated at an excited wavelength of 536 nm. Fluorescent intensity was measured at 588 nm, to calculate the trypanosome protozoa infected rate of the test solution added-group, and of the control group. From the protozoan infection rate obtained in the above, growth inhibition rate was calculated with the following formula, to obtain a 50% growth inhibition concentration (IC50). Growth inhibition rate (%)={1−(b−a)/(c−a)}×100 a: early infection rate b: infection rate when test solution was added c: infection rate of the control
Chemotherapy index used as an index of selective toxicity against African trypanosome protozoa was calculated with the following formula, to determine drug efficacy.

Row | SMILES | IC50 [µM]
26 | Nc1nc(N)nc(Nc2ccc([As]3SCC(CO)S3)cc2)n1 (stereo not shown) [melarsoprol, reference compound] | 0.006

same assay, conditions: Trypanosoma brucei, STIB900; STIB 900 strain, bloodstream form, 72 hours culture; read-out: 50% growth inhibiting concentration Trypanosoma brucei rhod.

Row | SMILES | IC50 [µM]
27 | CCn1c(=O)c(=C2C=CN(C)C=C2)s/c1=C\c1sc2c3ccccc3ccc2[n+]1CC [A-1] | 0.76
28 | CCn1c(=O)/c(=C2\C=CN(C)c3ccccc32)s/c1=C\c1oc2ccccc2[n+]1CC [A-2] | 0.012
29 | CCn1c(=O)/c(=C2\SCCN2C)s/c1=C\c1sc2ccc3ccccc3c2[n+]1CC [B-1] | 0.095
30 | CCn1c(=O)/c(=C2\Sc3ccccc3N2C)s/c1=C\c1cccc[n+]1CCOCCOCCOC [B-5] | 0.37
31 | CCn1c(=O)/c(=C2\Sc3ccccc3N2C)s/c1=C\c1cccc[n+]1CCOCCOCCO [B-6] | 0.94
32 | CCn1c(=O)/c(=C2\Oc3ccc4ccccc4c3N2C)s/c1=C\c1scc(C)[n+]1C [B-9] | 0.024
33 | CCn1c(=O)/c(=C2\Oc3c(ccc4ccccc34)N2C)s/c1=C\C1=[N+](CC)CCS1 [B-10] | 0.035
34 | CCn1c(=O)/c(=c2\s/c(=C3/Sc4ccccc4N3C)c(=O)n2CC)s/c1=C\c1sc2ccccc2[n+]1C [C-1] | 0.009

same assay, conditions: chemotherapy index, rat L6 cells versus African trypanosome protozoa

Row | SMILES | Selective toxicity
35 | CCn1c(=O)c(=C2C=CN(C)C=C2)s/c1=C\c1sc2c3ccccc3ccc2[n+]1CC [A-1] | 176
36 | CCn1c(=O)/c(=C2\C=CN(C)c3ccccc32)s/c1=C\c1oc2ccccc2[n+]1CC [A-2] | 533
37 | CCn1c(=O)/c(=C2\SCCN2C)s/c1=C\c1sc2ccc3ccccc3c2[n+]1CC [B-1] | 2030
38 | CCn1c(=O)/c(=C2\Sc3ccccc3N2C)s/c1=C\c1cccc[n+]1CCOCCOCCOC [B-5] | 338
39 | CCn1c(=O)/c(=C2\Sc3ccccc3N2C)s/c1=C\c1cccc[n+]1CCOCCOCCO [B-6] | 66
40 | CCn1c(=O)/c(=C2\Oc3ccc4ccccc4c3N2C)s/c1=C\c1scc(C)[n+]1C [B-9] | 592
41 | CCn1c(=O)/c(=C2\Oc3c(ccc4ccccc34)N2C)s/c1=C\C1=[N+](CC)CCS1 [B-10] | 529
42 | CCn1c(=O)/c(=c2\s/c(=C3/Sc4ccccc4N3C)c(=O)n2CC)s/c1=C\c1sc2ccccc2[n+]1C [C-1] | >15600
43 | Nc1nc(N)nc(Nc2ccc([As]3SCC(CO)S3)cc2)n1 (stereo not shown) [melarsoprol, reference compound] | 1300
